Measurements taken from ChEMBL document CHEMBL1143886, “In vitro spermicidal activity of peptides from amphibian skin: dermaseptin S4 and derivatives” (Bioorg Med Chem, 2008).
Calls of active or inactive are those of the source. No cut-off for these calls is given here.

Tests used:
[1] = system: Sperm; experiment: Inhibition of human sperm motility at 5 ug/ml after 15 mins by CASA; format: functional
[2] = system: Sperm; experiment: Inhibition of human sperm motility assessed as decrease in average path velocity by CASA; format: functional
[3] = system: Sperm; experiment: Inhibition of human sperm motility assessed as decrease in straight line velocity by CASA; format: functional
[4] = system: Sperm; experiment: Inhibition of human sperm motility assessed as decrease in curvilenear velocity by CASA; format: functional, cell-based
[5] = Inhibition of human sperm motility by Sander-Cramer modified assay; format: functional
[6] = system: HeLa; experiment: Cytotoxicity against human HeLa cells at above 16 ug/ml after 24 hrs by MTT assay; format: cell-based
[7] = Inhibition of human sperm motility at 20 ug/ml after 5 mins by CASA; format: functional; design: scale not given: the % may be the effect or the level left
[8] = system: Sperm; experiment: Inhibition of human sperm motility upto 15 mins by CASA; format: functional, cell-based

Row | Molecule | Activity [2] | Activity [3] | Activity [4] | EC100 [5] [µg/mL] | Activity [6] | further results
1 | CC(C)C[C@H](NC[C@@H](NC(=O)[C@H](C)NC(=O)[C@H](CC(N)=O)NC(=O)[C@H](CC(C)C)NC(=O)[C@H](C)NC(=O)[C@H](C)NC(=O)[C@H](CCCCN)NC(=O)[C@H](C)NC(=O)[C@H](C)NC(=O)[C@H](C)NC(=O)[C@H](CCCCN)NC(=O)[C@H](CC(C)C)NC(=O)[C@@H](NC(=O)[C@H](CCCCN)NC(=O)[C@H](CCCCN)NC(=O)[C@H](CC(C)C)NC(=O)[C@H](CC(C)C)NC(=O)[C@@H](NC(=O)[C@H](CCCCN)NC(=O)[C@H](Cc1c[nH]c2ccccc12)NC(=O)[C@H](CC(C)C)NC(=O)[C@H](C)N)[C@@H](C)O)C(C)C)C(C)C)C(=O)N[C@H](C(=O)NCC(=O)N[C@@H](C)C(=O)N[C@@H](CC(N)=O)C(=O)N[C@@H](C)C(=O)O)C(C)C | Dose-dependent effect | Dose-dependent effect | Dose-dependent effect |  |  | Activity [1]: Active
2 | CSCC[C@H](NC(=O)[C@H](Cc1c[nH]c2ccccc12)NC(=O)[C@H](CC(C)C)NC(=O)[C@H](C)N)C(=O)N[C@H](C(=O)N[C@@H](CC(C)C)C(=O)N[C@@H](CC(C)C)C(=O)N[C@@H](CCCCN)C(=O)N[C@@H](CCCCN)C(=O)N[C@H](C(=O)N[C@@H](CC(C)C)C(=O)N[C@@H](CCCCN)C(=O)N[C@@H](C)C(=O)N[C@@H](C)C(=O)N[C@@H](C)C(=O)N[C@@H](CCCCN)C(=O)N[C@@H](C)C(=O)N[C@@H](C)C(=O)N[C@@H](CC(C)C)C(=O)N[C@@H](CC(N)=O)C(=O)N[C@@H](C)C(=O)N[C@H](CN[C@@H](CC(C)C)C(=O)N[C@H](C(=O)NCC(=O)N[C@@H](C)C(=O)N[C@@H](CC(N)=O)C(=O)N[C@@H](C)C(N)=O)C(C)C)C(C)C)C(C)C)[C@@H](C)O | Dose-dependent effect | Dose-dependent effect | Dose-dependent effect |  |  | 
3 | H-ALWKTLLKKVLKAAAK-NH2 | Dose-dependent effect | Dose-dependent effect | Dose-dependent effect | 25 | Toxic | 
4 | H-ALWKTLLKKVLKAAAKAALNAVLVGANA-OH [listing 1 of 2 here] |  |  |  |  | Toxic | 
5 | H-ALWKTLLKKVLKAAAKAALNAVLVGANA-OH [listing 2 of 2 here] |  |  |  |  |  | Activity [7]: 100%
6 | H-ALWMTLLKKVLKAAAKAALNAVLVGANA-NH2 [listing 1 of 2 here] |  |  |  |  | Toxic | 
7 | H-ALWMTLLKKVLKAAAKAALNAVLVGANA-NH2 [listing 2 of 2 here] |  |  |  | 25 |  | 
8 | H-ALWMTLLKKVLKAAAKAALNAVLVGANA-OH |  |  |  | 25 |  | 
9 | H-LLKKVLKAAAKAALNAVLVGANA-OH | Dose-dependent effect | Dose-dependent effect | Dose-dependent effect | 25 |  | Activity [8]: inactive
